system: KM12-luc cells; experiment: Cell proliferation and growth inhibition assay (CCK-8) in KM12-luc; assay type: cell-based; settings: KM12-Luc, 72 h, KM12-luc cells, treated with test compounds for 72 hrs, CCK-8 viability; read-out: NTRK IC50 in KM12-luc
How it was run: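 Cells were grown at 37 °C, 5% CO2 with 10% FBS: MV-4-11 in IMDM, H1975 in RPMI 1640, KM12-luc in DMEM. Viability was read by CCK-8 (1-4 hrs reagent incubation, absorbance at OD450). IC50 came from a non-linear sigmoidal dose-response fit.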

Structure (SMILES) | IC50
COc1cnc(Nc2ccc(OCCN(C)C)c(NC(C)=O)c2)nc1-c1c[nH]c2c(OC)cccc12 [Compound 287, N-(2-(2-(dimethylamino)ethoxy)-5-((5-methoxy-4-(7-methoxy-1H-indol-3-yl)pyrimidin-2-yl)amino)phenyl)acetamide] | 21.9 nM
COc1cnc(Nc2ccc(N(C)CCN(C)C)c(NC(C)=O)c2)nc1-c1cn(C)nc1C [Compound 289, N-(5-((4-(1,3-dimethyl-1H-pyrazol-4-yl)-5-methoxypyrimidin-2-yl)amino)-2-((2-(dimethylamino)ethyl)(methyl)amino)phenyl)acetamide] | > 10000 nM
CNc1cc(Nc2ncc(OC)c(-c3cn(C)nc3C)n2)ccc1N(C)CCN(C)C [Compound 290, N^4-(4-(1,3-dimethyl-1H-pyrazol-4-yl)-5-methoxypyrimidin-2-yl)-N1-(2-(dimethylamino)ethyl)-N^1,N^2-dimethylbenzene-1,2,4-triamine] | > 10000 nM
COc1nc(Nc2ccc(N(C)CCN(C)C)c(NC(C)=O)c2)nc(-c2cn(C)c3ccccc23)c1OC [Compound 291a, N-(5-((4,5-dimethoxy-6-(1-methyl-1H-indol-3-yl)pyrimidin-2-yl)amino)-2-((2-(dimethylamino)ethyl) (methyl)amino)phenyl)acetamide] | 8660 nM
COc1nc(Nc2cc(F)c(N(C)CCN(C)C)c(NC(C)=O)c2)nc(-c2cn(C)c3ccccc23)c1OC [Compound 291b, N-(5-((4,5-dimethoxy-6-(1-methyl-1H-indol-3-yl)pyrimidin-2-yl)amino)-2-((2-(dimethylamino)ethyl)(methyl)amino)-3-fluorophenyl)acetamide] | 1400 nM
CCN(CCN(C)C)c1ccc(Nc2nc(OC)c(OC)c(-c3cn(C)c4ccccc34)n2)cc1NC(C)=O [Compound 291c, N-(5-((4,5-dimethoxy-6-(1-methyl-1H-indol-3-yl)pyrimidin-2-yl)amino)-2-((2-(dimethylamino)ethyl) (ethyl)amino)phenyl) acetamide] | 2050 nM
CCN(CCN(C)C)c1c(F)cc(Nc2nc(OC)c(OC)c(-c3cn(C)c4ccccc34)n2)cc1NC(C)=O [Compound 291d, N-(5-((4,5-dimethoxy-6-(1-methyl-1H-indol-3-yl)pyrimidin-2-yl)amino)-2-((2-(dimethylamino)ethyl) (ethyl)amino)-3-fluorophenyl)acetamide] | 3270 nM
COc1c(N)nc(Nc2ccc(N(C)CCN(C)C)c(N)c2)nc1-c1cn(C)c2ccccc12 [Compound 294, N^4-(4-amino-5-methoxy-6-(1-methyl-1H-indol-3-yl)pyrimidin-2-yl)-N^1-(2-(dimethylamino)ethyl)-N^1-methylbenzene-1,2,4-triamine] | 167 nM
COc1c(N)nc(Nc2ccc(N(C)CCN(C)C)c(NC(C)=O)c2)nc1-c1cn(C)c2ccccc12 [Compound 295, N-(5-((4-amino-5-methoxy-6-(1-methyl-1H-indol-3-yl)pyrimidin-2-yl)amino)-2-((2-(dimethylamino)ethyl) (methyl)amino)phenyl) acetamide] | 159 nM
CN(C)CCN(C)c1ccc(Nc2ncc(C(F)(F)F)c(-c3c[nH]c4ccccc34)n2)cc1N [Compound 297, N^4-(4-(1H-indol-3-yl)-5-(trifluoromethyl)pyrimidin-2-yl)-N^1-(2-(dimethylamino)ethyl)-N^1-methylbenzene-1,2,4-triamine] | 37.7 nM
CC(=O)Nc1cc(Nc2ncc(C(F)(F)F)c(-c3c[nH]c4ccccc34)n2)cc(F)c1N(C)CCN(C)C [Compound 299a, N-(5-((4-(1H-indol-3-yl)-5-(trifluoromethyl)pyrimidin-2-yl)amino)-2-((2-(dimethylamino)ethyl)(methyl)amino)-3-fluorophenyl)acetamide] | 48.1 nM
CC(=O)Nc1cc(Nc2nc(-c3c[nH]c4ccccc34)ncc2C(F)(F)F)cc(F)c1N(C)CCN(C)C [Compound 299b, N-(5-((2-(1H-indol-3-yl)-5-(trifluoromethyl)pyrimidin-4-yl)amino)-2-((2-(dimethylamino)ethyl)(methyl)amino)-3-fluorophenyl)acetamide] | 3380 nM
CCN(CCN(C)C)c1ccc(Nc2ncc(C(F)(F)F)c(-c3c[nH]c4ccccc34)n2)cc1NC(C)=O [Compound 300a, N-(5-((4-(1H-indol-3-yl)-5-(trifluoromethyl)pyrimidin-2-yl)amino)-2-((2-(dimethylamino)ethyl)(ethyl)amino)phenyl)acetamide] | 27.9 nM
CCN(CCN(C)C)c1ccc(Nc2nc(-c3c[nH]c4ccccc34)ncc2C(F)(F)F)cc1NC(C)=O [Compound 300b, N-(5-((2-(1H-indol-3-yl)-5-(trifluoromethyl)pyrimidin-4-yl)amino)-2-((2-(dimethylamino)ethyl)(ethyl)amino)phenyl)acetamide] | 3680 nM
CCN(CCN(C)C)c1ccc(Nc2ncc(C(F)(F)F)c(-c3c[nH]c4ccccc34)n2)cc1N [Compound 301, N^4-(4-(1H-indol-3-yl)-5-(trifluoromethyl)pyrimidin-2-yl)-N^1-(2-(dimethylamino)ethyl)-N-ethylbenzene-1,2,4-triamine] | 75.4 nM
CCC(=O)Nc1cc(Nc2ncc(C(F)(F)F)c(-c3c[nH]c4ccccc34)n2)ccc1N(CC)CCN(C)C [Compound 302, N-(5-((4-(1H-indol-3-yl)-5-(trifluoromethyl)pyrimidin-2-yl)amino)-2-((2-(dimethylamino)ethyl)(ethyl)amino)phenyl)propionamide] | 96.8 nM
Cc1nc2cc(Nc3ncc(C(F)(F)F)c(-c4c[nH]c5ccccc45)n3)ccc2n1CCN(C)C [Compound 303b, N^1—N-(4-(1H-indol-3-yl)-5-(trifluoromethyl)pyrimidin-2-yl)-1-(2-(dimethylamino)ethyl)-2-methyl-1H-benzo[d]imidazol-5-amine] | 64.3 nM
CC(=O)Nc1cc(Nc2ncc(C(F)(F)F)c(-c3c[nH]c4ccccc34)n2)ccc1OCCN(C)C [Compound 304, N-(5-((4-(1H-indol-3-yl)-5-(trifluoromethyl)pyrimidin-2-yl)amino)-2-(2-(dimethylamino)ethoxy)phenyl)acetamide] | 75.1 nM
CN(C)CCN(C)c1ccc(Nc2ncc(C(F)(F)F)c(-c3cn(C)c4ccccc34)n2)cc1N [Compound 306, N^1-(2-(dimethylamino)ethyl)-N^1-methyl-N^4-(4-(1-methyl-1H-indol-3-yl)-5-(trifluoromethyl)pyrimidin-2-yl)benzene-1,2,4-triamine] | 56.1 nM
CC(=O)Nc1cc(Nc2ncc(C(F)(F)F)c(-c3cn(C)c4ccccc34)n2)cc(F)c1N(C)CCN(C)C [Compound 308, N-(2-((2-(dimethylamino)ethyl)(methyl)amino)-3-fluoro-5-((4-(1-methyl-1H-indol-3-yl)-5-(trifluoromethyl)pyrimidin-2-yl)amino)phenyl)acetamide] | 139 nM
CCN(CCN(C)C)c1ccc(Nc2ncc(C(F)(F)F)c(-c3cn(C)c4ccccc34)n2)cc1NC(C)=O [Compound 309, N-(2-((2-(dimethylamino)ethyl)(ethyl)amino)-5-((4-(1-methyl-1H-indol-3-yl)-5-(trifluoromethyl)pyrimidin-2-yl)amino)phenyl)acetamide] | 135 nM
CCN(CCN(C)C)c1ccc(Nc2ncc(C(F)(F)F)c(-c3cn(C)c4ccccc34)n2)cc1N [Compound 310, N^1-(2-(dimethylamino)ethyl)-N^1-ethyl-N^4-(4-(1-methyl-1H-indol-3-yl)-5-(trifluoromethyl)pyrimidin-2-yl)benzene-1,2,4-triamine] | 305 nM
CC(=O)Nc1cc(Nc2ncc(C(F)(F)F)c(-c3cn(C)c4ccccc34)n2)c(F)cc1N(C)CCN(C)C [Compound 313, N-(2-((2-(dimethylamino)ethyl)(methyl)amino)-4-fluoro-5-((4-(1-methyl-1H-indol-3-yl)-5-(trifluoromethyl)pyrimidin-2-yl)amino)phenyl)acetamide] | 308 nM
CC(=O)Nc1cc(Nc2ncc(C(F)(F)F)c(-c3cn(C)c4ccccc34)n2)ccc1N(CCN(C)C)C(C)=O [Compound 314a, N-(2-acetamido-4-((4-(1-methyl-1H-indol-3-yl)-5-(trifluoromethyl)pyrimidin-2-yl)amino)phenyl)-N-(2-(dimethylamino)ethyl)acetamide] | 63.2 nM
Cc1nc2cc(Nc3ncc(C(F)(F)F)c(-c4cn(C)c5ccccc45)n3)ccc2n1CCN(C)C [Compound 314b, 1-(2-(dimethylamino)ethyl)-2-methyl-N-(4-(1-methyl-1H-indol-3-yl)-5-(trifluoromethyl)pyrimidin-2-yl)-1H-benzo[d]imidazol-5-amine] | 139 nM
CC(=O)Nc1cc(Nc2ncc(C(F)(F)F)c(-c3cn(C)c4ccccc34)n2)ccc1OCCN(C)C [Compound 315, N-(2-(2-(dimethylamino)ethoxy)-5-((4-(1-methyl-1H-indol-3-yl)-5-(trifluoromethyl)pyrimidin-2-yl)amino)phenyl)acetamide] | 85.1 nM
CN(C)CCN(C)c1ccc(Nc2ncc(C(F)(F)F)c(-c3c[nH]c4cccc(F)c34)n2)cc1N [Compound 317, N^1-(2-(dimethylamino)ethyl)-N^4-(4-(4-fluoro-1H-indol-3-yl)-5-(trifluoromethyl)pyrimidin-2-yl)-N^1-methylbenzene-1,2,4-triamine] | 24.9 nM
CCN(CCN(C)C)c1ccc(Nc2ncc(C(F)(F)F)c(-c3c[nH]c4cccc(F)c34)n2)cc1NC(C)=O [Compound 318, N-(2-((2-(dimethylamino)ethyl)(ethyl)amino)-5-((4-(4-fluoro-1H-indol-3-yl)-5-(trifluoromethyl)pyrimidin-2-yl)amino)phenyl)acetamide] | 43.2 nM
CC(=O)Nc1cc(Nc2ncc(C(F)(F)F)c(-c3cn(C)c4cccc(F)c34)n2)ccc1N(C)CCN(C)C [Compound 320, N-(2-((2-(dimethylamino)ethyl)(methyl)amino)-5-((4-(4-fluoro-1-methyl-1H-indol-3-yl)-5-(trifluoromethyl)pyrimidin-2-yl)amino)phenyl)acetamide] | 91.1 nM
